From article PMC2806030, “Inhibition of mammalian S6 kinase by resveratrol suppresses autophagy” (Aging (Albany NY), 2009)

Columns and labels:
Assay in all cases: biochemical
Set-up in all cases: Upstate KinaseProfiler in vitro kinase activity assay, per cent of DMSO control
Conditions in all cases: read-out: Activity (% of Control)
Abl(h) = molecular target: T1, Abl(h) (Homo sapiens, UniProt P00519)
T1 construct: gene ABL1
Description: (§1) Kinase profile and kinase assay. A Kinase profile against 100 kinases listed for resveratrol at 20 μM was generated utilizing Upstate's KinaseProfiler™ service. Assay protocols for each kinase are available from Upstate (Lake Placid, NY). In vitro kinase assay was performed as described previously. Briefly, HEK293 cells were transfected with HA-S6K1 wt, HA-S6K1 K100R, or vector as indicated. Cells were treated with 1 μg/ml insulin for 10 minutes prior to harvesting in PBS + 0.5% NP-40 + protease and phosphatase inhibitors. 125 μg of lysate per sample was immunoprecipitated using 0.5 μg/sample of anti-HA High-Affinity (Roche, Basel Switzerland). Beads from immunoprecipitations were washed three times in lysis buffer and once in kinase buffer, and kinase assays were performed with recombinant GST-S6 as substrate (1 μg per assay). In the indicated lanes varying doses of resveratrol or DMSO control were added to the reaction prior to addition of the GST-S6 substrate. All samples were subjected to SDS-PAGE, and 32P incorporation was quantified by using a Bio-Rad (Hercules, CA) Phosphor-Imager and subsequent analysis with ImageJ (NIH).  Figure 4. Resveratrol inhibits S6K1 in vitro. (A) Structural similarity between resveratrol and quercetin, a known kinase inhibitor. (B) Kinase inhibition profile for resveratrol at 20 μM obtained using KinaseProfiler™ (Upstate). Dashed line represents 100% activity as compared to control. Black filled-in bar on the graph indicates S6K1. Complete data set is provided in Supplementary Table 1. Error bars represent s.d.m. (C) Phosphorylation of recombinant GST-tagged S6 by immunoprecipitated HA-S6K1 under increasing concentrations of resveratrol (Res). Autoradiograph depicts S6K1 phosphorylation of GST-S6. (D) Average of three separate kinase assay experiments as performed in (C). Densitometry was performed using NIH ImageJ. Error bars represent s.e.m. […] Therefore, we hypothesized that the effect of resveratrol on autophagy could be related to inhibition of one or more upstream kinases. To test this, we performed an in vitro kinase screen and determined an inhibition profile for resveratrol. […] With the exception of S6K1, these kinases play primary roles in the hematopoietic system, and were thus viewed as unlikely to have been responsible for the effect we were studying. […] On the other hand, S6K1 is known to play a requisite role in the regulation of autophagy in Drosophila, making it a promising candidate for the in vivo target of resveratrol that is responsible for inhibition of autophagy.

MSK2(h) = molecular target: T2, MSK2(h) (Homo sapiens, UniProt O75676)
T2 construct: gene RPS6KA4
Description: as §1

Rsk1(h) = molecular target: T3, Rsk1(h) (Homo sapiens, UniProt Q15418)
T3 construct: gene RPS6KA1
Description: as §1

ALK(h) = ALK(h) (Homo sapiens, UniProt Q9UM73)
Description: as §1

EphB2(h) = EphB2(h) (Homo sapiens, UniProt P29323)
Description: as §1

PKCδ(h) = molecular target: T4, PKCδ(h) (Homo sapiens, UniProt Q05655)
T4 construct: gene PRKCD
Description: as §1

JNK2α2(h) = molecular target: T5, JNK2α2(h) (Homo sapiens, UniProt P45984)
T5 construct: gene MAPK9; isoform alpha2
Description: as §1

SAPK3(h) = molecular target: T6, SAPK3(h) (Homo sapiens, UniProt P53778)
T6 construct: gene MAPK12
Description: as §1

SAPK4(h) = molecular target: T7, SAPK4(h) (Homo sapiens, UniProt O15264)
T7 construct: gene MAPK13
Description: as §1

SGK(h) = molecular target: T8, SGK(h) (Homo sapiens, UniProt O00141)
T8 construct: gene SGK1
Description: as §1

SAPK2b(h) = molecular target: T9, SAPK2b(h) (Homo sapiens, UniProt Q15759)
T9 construct: gene MAPK11
Description: as §1

JNK3(h) = molecular target: T10, JNK3(h) (Homo sapiens, UniProt P53779)
T10 construct: gene MAPK10
Description: as §1

GSK3ß(h) = molecular target: T11, GSK3ß(h) (Homo sapiens, UniProt P49841)
T11 construct: gene GSK3B
Description: as §1

Jak2 = Jak2 (Homo sapiens, UniProt O60674)
Description: as §1

Rsk2(h) = molecular target: T12, Rsk2(h) (Homo sapiens, UniProt P51812)
T12 construct: gene RPS6KA3
Description: as §1

CDK6/cyclinD3(h) = CDK6/cyclinD3(h) (Homo sapiens, UniProt Q00534)
Description: as §1

LKB1(h) = molecular target: T13, LKB1(h) (Homo sapiens, UniProt Q15831)
T13 construct: gene STK11
Description: as §1

Chain of CDK6/cyclinD3(h) (Q00534 whole entry): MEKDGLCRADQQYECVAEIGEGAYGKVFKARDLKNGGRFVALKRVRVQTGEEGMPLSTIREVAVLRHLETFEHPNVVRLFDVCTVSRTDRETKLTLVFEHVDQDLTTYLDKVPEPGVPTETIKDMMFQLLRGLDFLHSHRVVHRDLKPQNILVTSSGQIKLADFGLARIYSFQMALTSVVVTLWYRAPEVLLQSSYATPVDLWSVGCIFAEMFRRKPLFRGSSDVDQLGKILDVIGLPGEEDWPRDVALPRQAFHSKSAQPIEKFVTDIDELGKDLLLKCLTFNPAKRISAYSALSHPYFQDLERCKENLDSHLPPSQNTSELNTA
Chain of CDK6/cyclinD3(h) (P30281 whole entry partner): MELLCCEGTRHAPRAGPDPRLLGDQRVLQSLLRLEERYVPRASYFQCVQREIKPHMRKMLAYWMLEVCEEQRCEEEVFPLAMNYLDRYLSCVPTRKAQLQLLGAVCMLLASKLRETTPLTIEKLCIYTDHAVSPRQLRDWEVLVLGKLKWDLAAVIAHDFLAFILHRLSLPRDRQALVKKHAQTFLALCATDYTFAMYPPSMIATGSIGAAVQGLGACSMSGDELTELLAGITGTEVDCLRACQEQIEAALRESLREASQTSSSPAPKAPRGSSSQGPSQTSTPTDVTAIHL
T1 sequence (P00519 whole entry): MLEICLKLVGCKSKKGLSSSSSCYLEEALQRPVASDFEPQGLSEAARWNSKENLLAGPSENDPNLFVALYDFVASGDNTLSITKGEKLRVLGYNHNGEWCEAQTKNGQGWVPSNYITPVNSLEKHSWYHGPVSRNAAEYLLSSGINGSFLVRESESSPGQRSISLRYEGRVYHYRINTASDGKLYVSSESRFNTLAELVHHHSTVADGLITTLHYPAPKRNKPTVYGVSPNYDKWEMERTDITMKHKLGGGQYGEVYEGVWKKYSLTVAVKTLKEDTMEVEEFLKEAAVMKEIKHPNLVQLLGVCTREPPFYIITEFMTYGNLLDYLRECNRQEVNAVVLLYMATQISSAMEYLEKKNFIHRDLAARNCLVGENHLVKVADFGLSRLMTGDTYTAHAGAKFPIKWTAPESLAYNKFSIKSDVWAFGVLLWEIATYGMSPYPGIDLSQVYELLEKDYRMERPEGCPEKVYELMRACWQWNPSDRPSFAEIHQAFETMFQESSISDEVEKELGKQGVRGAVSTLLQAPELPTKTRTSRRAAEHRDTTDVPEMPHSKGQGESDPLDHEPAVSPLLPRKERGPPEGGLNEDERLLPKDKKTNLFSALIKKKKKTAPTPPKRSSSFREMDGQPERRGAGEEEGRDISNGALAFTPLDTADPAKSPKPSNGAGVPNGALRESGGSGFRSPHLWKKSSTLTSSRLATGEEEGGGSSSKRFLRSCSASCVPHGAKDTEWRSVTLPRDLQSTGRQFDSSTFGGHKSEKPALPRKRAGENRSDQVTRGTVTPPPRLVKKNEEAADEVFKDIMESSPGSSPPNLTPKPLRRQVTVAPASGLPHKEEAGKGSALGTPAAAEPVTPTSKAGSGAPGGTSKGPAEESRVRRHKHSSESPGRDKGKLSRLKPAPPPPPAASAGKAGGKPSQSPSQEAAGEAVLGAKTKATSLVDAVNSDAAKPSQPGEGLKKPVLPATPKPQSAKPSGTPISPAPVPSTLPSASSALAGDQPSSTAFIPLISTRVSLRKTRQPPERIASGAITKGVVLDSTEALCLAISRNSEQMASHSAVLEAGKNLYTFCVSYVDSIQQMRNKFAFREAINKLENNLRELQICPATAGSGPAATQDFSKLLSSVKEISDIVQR
T6 sequence (P53778 whole entry): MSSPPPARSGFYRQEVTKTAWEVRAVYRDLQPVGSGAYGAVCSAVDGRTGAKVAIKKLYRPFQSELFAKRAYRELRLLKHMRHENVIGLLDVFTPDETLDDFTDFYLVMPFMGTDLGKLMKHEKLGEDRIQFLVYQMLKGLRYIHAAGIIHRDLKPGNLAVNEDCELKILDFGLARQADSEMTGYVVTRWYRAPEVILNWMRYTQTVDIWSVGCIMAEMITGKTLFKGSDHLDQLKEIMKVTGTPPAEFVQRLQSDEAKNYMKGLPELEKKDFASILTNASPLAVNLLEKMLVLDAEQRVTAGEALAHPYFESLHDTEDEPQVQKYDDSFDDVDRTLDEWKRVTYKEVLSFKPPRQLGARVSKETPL
Chain of EphB2(h) (P29323 whole entry): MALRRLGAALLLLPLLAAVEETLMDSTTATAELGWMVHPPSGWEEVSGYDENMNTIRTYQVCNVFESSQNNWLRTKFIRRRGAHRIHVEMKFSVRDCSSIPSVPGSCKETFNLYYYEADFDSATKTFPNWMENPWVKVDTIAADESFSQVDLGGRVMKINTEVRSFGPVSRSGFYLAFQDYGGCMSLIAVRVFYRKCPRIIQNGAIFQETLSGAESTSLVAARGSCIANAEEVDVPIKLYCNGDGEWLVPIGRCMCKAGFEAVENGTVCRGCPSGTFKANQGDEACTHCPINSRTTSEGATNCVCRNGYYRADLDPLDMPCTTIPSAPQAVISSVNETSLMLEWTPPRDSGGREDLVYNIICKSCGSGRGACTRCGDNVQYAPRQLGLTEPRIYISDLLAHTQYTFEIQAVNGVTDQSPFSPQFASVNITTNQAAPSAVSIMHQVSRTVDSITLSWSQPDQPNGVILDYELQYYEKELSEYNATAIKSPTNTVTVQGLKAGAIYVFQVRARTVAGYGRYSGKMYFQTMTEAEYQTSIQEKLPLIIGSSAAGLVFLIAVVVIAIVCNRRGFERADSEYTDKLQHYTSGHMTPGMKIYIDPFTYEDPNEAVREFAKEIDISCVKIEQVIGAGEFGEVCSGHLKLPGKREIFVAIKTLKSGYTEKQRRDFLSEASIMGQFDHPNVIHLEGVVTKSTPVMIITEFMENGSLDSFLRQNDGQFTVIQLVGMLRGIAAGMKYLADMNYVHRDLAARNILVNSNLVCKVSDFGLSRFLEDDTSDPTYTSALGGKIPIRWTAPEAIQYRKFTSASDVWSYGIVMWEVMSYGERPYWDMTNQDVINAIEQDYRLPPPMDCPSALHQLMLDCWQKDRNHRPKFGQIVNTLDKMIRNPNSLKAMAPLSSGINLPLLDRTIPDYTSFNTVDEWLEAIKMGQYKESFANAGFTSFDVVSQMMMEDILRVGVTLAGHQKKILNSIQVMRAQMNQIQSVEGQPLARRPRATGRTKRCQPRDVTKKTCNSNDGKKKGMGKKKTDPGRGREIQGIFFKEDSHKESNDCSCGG
T12 sequence (P51812 whole entry): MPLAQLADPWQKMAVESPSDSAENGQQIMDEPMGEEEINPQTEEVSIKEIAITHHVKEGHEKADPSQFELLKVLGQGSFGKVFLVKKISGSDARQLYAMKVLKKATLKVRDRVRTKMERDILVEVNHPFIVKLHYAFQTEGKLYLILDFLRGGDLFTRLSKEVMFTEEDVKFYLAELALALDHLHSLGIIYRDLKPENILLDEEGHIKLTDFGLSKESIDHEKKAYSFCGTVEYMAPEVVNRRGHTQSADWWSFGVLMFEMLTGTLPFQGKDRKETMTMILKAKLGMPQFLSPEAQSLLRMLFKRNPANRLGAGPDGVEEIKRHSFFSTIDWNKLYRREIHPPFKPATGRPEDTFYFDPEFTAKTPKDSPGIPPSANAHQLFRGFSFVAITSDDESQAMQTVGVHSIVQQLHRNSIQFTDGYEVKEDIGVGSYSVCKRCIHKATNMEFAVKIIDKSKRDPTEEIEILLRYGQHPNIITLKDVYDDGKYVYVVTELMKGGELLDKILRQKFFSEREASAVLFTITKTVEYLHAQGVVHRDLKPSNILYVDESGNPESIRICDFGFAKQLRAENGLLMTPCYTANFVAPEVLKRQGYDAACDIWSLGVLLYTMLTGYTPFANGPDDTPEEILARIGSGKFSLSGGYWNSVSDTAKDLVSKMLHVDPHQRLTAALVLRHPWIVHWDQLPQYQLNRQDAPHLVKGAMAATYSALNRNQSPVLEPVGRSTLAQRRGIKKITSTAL
T7 sequence (O15264 whole entry): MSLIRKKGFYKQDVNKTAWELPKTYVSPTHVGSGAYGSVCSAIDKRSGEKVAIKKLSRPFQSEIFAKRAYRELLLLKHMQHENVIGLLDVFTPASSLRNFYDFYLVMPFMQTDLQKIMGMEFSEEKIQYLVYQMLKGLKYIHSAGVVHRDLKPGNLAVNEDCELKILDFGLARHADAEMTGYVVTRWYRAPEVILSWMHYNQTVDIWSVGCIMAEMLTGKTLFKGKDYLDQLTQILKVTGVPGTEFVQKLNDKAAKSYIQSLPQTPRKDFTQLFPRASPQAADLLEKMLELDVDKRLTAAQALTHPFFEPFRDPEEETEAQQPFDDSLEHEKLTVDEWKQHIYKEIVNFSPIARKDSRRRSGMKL
T11 sequence (P49841 whole entry): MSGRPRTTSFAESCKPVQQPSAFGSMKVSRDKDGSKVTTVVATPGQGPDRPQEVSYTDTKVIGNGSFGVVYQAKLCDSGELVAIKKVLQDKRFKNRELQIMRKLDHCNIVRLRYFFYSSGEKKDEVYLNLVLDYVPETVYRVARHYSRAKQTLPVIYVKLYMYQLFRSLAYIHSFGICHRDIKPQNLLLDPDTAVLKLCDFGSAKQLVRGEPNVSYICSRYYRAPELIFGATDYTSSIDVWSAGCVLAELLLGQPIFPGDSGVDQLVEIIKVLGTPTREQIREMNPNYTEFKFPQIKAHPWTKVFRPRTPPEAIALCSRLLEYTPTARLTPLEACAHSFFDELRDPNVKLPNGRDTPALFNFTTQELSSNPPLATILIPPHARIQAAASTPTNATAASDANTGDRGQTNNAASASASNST

Question: For Oc1ccc(/C=C/c2cc(O)cc(O)c2)cc1 [Res, resveratrol], which remaining activity at 20 µM (Abl(h)) is on record?
Answer: 105 ± 7%

Question: What about the remaining activity at 20 µM (MSK2(h)) of the same molecule?
Answer: 60 ± 1%

Question: What about the remaining activity at 20 µM (Rsk1(h)) of the same molecule?
Answer: 70 ± 1%

Question: And the remaining activity at 20 µM (ALK(h))?
Answer: 39%

Question: And the remaining activity at 20 µM (EphB2(h))?
Answer: 113 ± 1%

Question: What about the remaining activity at 20 µM (PKCδ(h)) of the same molecule?
Answer: 92 ± 1%

Question: And the remaining activity at 20 µM (JNK2α2(h))?
Answer: 110 ± 4%

Question: What about the remaining activity at 20 µM (SAPK3(h)) of the same molecule?
Answer: 110 ± 5%

Question: What about the remaining activity at 20 µM (SAPK4(h)) of the same molecule?
Answer: 92 ± 4%

Question: What about the remaining activity at 20 µM (SGK(h)) of the same molecule?
Answer: 86 ± 13%

Question: What about the remaining activity at 20 µM (SAPK2b(h)) of the same molecule?
Answer: 100 ± 1%

Question: What about the remaining activity at 20 µM (JNK3(h)) of the same molecule?
Answer: 98 ± 3%

Question: And the remaining activity at 20 µM (GSK3ß(h))?
Answer: 92%

Question: And the remaining activity at 20 µM (Jak2)?
Answer: 27 ± 5%

Question: What about the remaining activity at 20 µM (Rsk2(h)) of the same molecule?
Answer: 32%

Question: And the remaining activity at 20 µM (CDK6/cyclinD3(h))?
Answer: 55 ± 2%

Question: What about the remaining activity at 20 µM (LKB1(h)) of the same molecule?
Answer: 102 ± 3%
